Assay results taken from US20220370416A1, “COMPOUNDS AND METHODS FOR TARGETED DEGRADATION OF KRAS” (Arvinas Operations, Inc., priority 2020, published 2022).

How the values were obtained:
HiBit-KRAS^G12C [1] = biological target: T1, HiBit-KRAS^G12C (Homo sapiens, UniProt P01116, G12C); experiment: HiBit degradation assay in MiaPaCa-2 HiBit-KRas^G12C cells; type: cell-based; settings: 0.5% DMSO, 24 hours; for Dmax: maximum degradation; for DC50: read-out: KRas^G12C-HiBiT (MiaPaCa; 0.5% DMSO) IC50
T1 sequence (P01116 1-186 isoform P01116-2 G12C limits assumed): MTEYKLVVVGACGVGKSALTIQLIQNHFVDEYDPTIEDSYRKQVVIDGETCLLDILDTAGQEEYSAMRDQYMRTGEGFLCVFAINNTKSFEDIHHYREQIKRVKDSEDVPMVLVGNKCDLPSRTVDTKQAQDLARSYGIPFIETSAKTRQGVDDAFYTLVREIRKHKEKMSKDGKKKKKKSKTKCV
In short: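 MiaPaCa-2 cells with CRISPR N-terminal HiBit knock-in on one endogenous KRAS^G12C allele, treated 24 hours at 37° C with compound titrated 10 μM to 20 nM (0.1% or 0.5% DMSO). Lytic HiBit luminescence normalized to DMSO, 4-parameter fit giving DC50 and Dmax; points cytotoxic to […] cells by alamar blue excluded.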

HiBit-KRAS^G12C [2] = biological target: T1, HiBit-KRAS^G12C; experiment: HiBit degradation assay in SW1573 HiBit-KRas^G12C cells; type: cell-based; design: expressed in transfected cells; host or cells: SW1573 (clone E6), modified pcDNA3.1 vector, TK promoter; settings: 0.5% DMSO, 24 hours; for DC50: read-out: KRas^G12C-HiBiT (SW1573; 0.5% DMSO) IC50***
In short: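 SW1573 cells stably expressing N-terminally HiBit-tagged KRAS G12C, under the TK promoter, were treated 24 h at 37 °C with 10 μM to 20 nM compound in 0.1% or 0.5% DMSO. Residual HiBit luminescence normalised to DMSO and fitted with a 4-parameter model for DC50 and Dmax. Points with ≥50% viability loss (alamar blue) excluded.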

[3] = MIA PaCa-2, MiaPaCa-2 HiBit-KRas^G12C cells, read-out: KRas^G12C-HiBiT (MiaPaCa; 0.5% DMSO) DMax
[4] = MiaPaCa-2 HiBit-KRas^G12C cells
[5] = SW1573, SW1573 HiBit-KRas^G12C, read-out: KRas^G12C-HiBiT (SW1573; 0.5% DMSO) Dmax**

Row | SMILES | Dmax (HiBit-KRAS^G12C [1]; [3]) [%] | DC50 (HiBit-KRAS^G12C [1]; [4]) [µM] | Dmax (HiBit-KRAS^G12C [2]; [5]) [%] | DC50 (HiBit-KRAS^G12C [2]; SW1573 HiBit-KRas^G12C) [µM] | Dmax (HiBit-KRAS^G12C [1]; MIA PaCa-2, read-out: KRas^G12C-HiBiT (MiaPaCa; 0.5% DMSO) DMax, MiaPaCa-2 HiBit-KRas^G12C cells) [%] | Dmax (HiBit-KRAS^G12C [2]; SW1573, read-out: KRas^G12C-HiBiT (SW1573; 0.5% DMSO) Dmax**, SW1573 HiBit-KRas^G12C) [%]
1 | C=CC(=O)N1CCN(c2nc(N3CCN(C[C@H]4C[C@H](OCC(=O)N[C@H](C(=O)N5C[C@H](O)C[C@H]5C(=O)N[C@@H](C)c5ccc(-c6scnc6C)cc5)C(C)(C)C)C4)CC3)nc3c(F)c(-c4cc(O)cc5ccccc45)c(Cl)cc23)C[C@@H]1CC#N [Compound 114, (2S,4R)-1-[(2S)-3,3-dimethyl-2-{2-[(1r,3r)-3-[(4-{6-chloro-4-[(3S)-3-(cyanomethyl)-4-(prop-2-enoyl)piperazin-1-yl]-8-fluoro-7-(3-hydroxynaphthalen-1-yl)quinazolin-2-yl}piperazin-1-yl)methyl]cyclobutoxy]acetamido}butanoyl]-4-hydroxy-N-[(1S)-1-[4-(4-methyl-1,3-thiazol-5-yl)phenyl]ethyl]pyrrolidine-2-carboxamide] | < 35 | 0.1 to 1 | 35 to 70 | 0.1 to 1 |  | 
2 | C=CC(=O)N1CCN(c2nc(OCCN3CCC(F)(CN(C)CC(=O)N[C@H](C(=O)N4C[C@H](O)C[C@H]4C(=O)N[C@@H](C)c4ccc(-c5scnc5C)cc4)C(C)(C)C)CC3)nc3c(F)c(-c4cc(O)cc5ccccc45)c(Cl)cc23)C[C@@H]1CC#N [Compound 120, (2S,4R)-1-[(2S)-2-{2-[({1-[2-({6-chloro-4-[(3S)-3-(cyanomethyl)-4-(prop-2-enoyl)piperazin-1-yl]-8-fluoro-7-(3-hydroxynaphthalen-1-yl)quinazolin-2-yl}oxy)ethyl]-4-fluoropiperidin-4-yl}methyl)(methyl)amino]acetamido}-3,3-dimethylbutanoyl]-4-hydroxy-N-[(1S)-1-[4-(4-methyl-1,3-thiazol-5-yl)phenyl]ethyl]pyrrolidine-2-carboxamide] |  | 0.1 to 1 |  | 0.1 to 1 | 35 to 70 | 35 to 70
3 | C=CC(=O)N1CCN(c2nc(OCCN3CCC(COCC(=O)N[C@H](C(=O)N4C[C@H](O)C[C@H]4C(=O)N[C@@H](C)c4ccc(-c5scnc5C)cc4)C(C)(C)C)CC3)nc3c(F)c(-c4c(C)ccc5[nH]ncc45)c(Cl)cc23)C[C@@H]1CC#N [Compound 128, (2S,4R)-1-[(2S)-2-[2-({1-[2-({6-chloro-4-[(3S)-3-(cyanomethyl)-4-(prop-2-enoyl)piperazin-1-yl]-8-fluoro-7-(5-methyl-1H-indazol-4-yl)quinazolin-2-yl}oxy)ethyl]piperidin-4-yl}methoxy)acetamido]-3,3-dimethylbutanoyl]-4-hydroxy-N-[(1S)-1-[4-(4-methyl-1,3-thiazol-5-yl)phenyl]ethyl]pyrrolidine-2-carboxamide] | 35 to 70 | 0.1 to 1 | > 70 | 0.1 to 1 |  | 
4 | C=CC(=O)N1CCN(c2nc(O[C@@H]3CCC[C@H]3N3CCC(COCC(=O)N[C@H](C(=O)N4C[C@H](O)C[C@H]4C(=O)N[C@@H](C)c4ccc(-c5scnc5C)cc4)C(C)(C)C)CC3)nc3c(F)c(-c4cc(O)cc5ccccc45)c(Cl)cc23)C[C@@H]1CC#N [Compound 130, (2S,4R)-1-[(2S)-2-[2-({1-[(1R,2R)-2-({6-chloro-4-[(3S)-3-(cyanomethyl)-4-(prop-2-enoyl)piperazin-1-yl]-8-fluoro-7-(3-hydroxynaphthalen-1-yl)quinazolin-2-yl}oxy)cyclopentyl]piperidin-4-yl}methoxy)acetamido]-3,3-dimethylbutanoyl]-4-hydroxy-N-[(1S)-1-[4-(4-methyl-1,3-thiazol-5-yl)phenyl]ethyl]pyrrolidine-2-carboxamide] | 35 to 70 | 0.1 to 1 | > 70 | 0.1 to 1 |  | 
5 | C=CC(=O)N1CCN(c2nc(OCCN3CCC(C)(COc4cc([C@H](C(=O)N5C[C@H](O)C[C@H]5C(=O)N[C@@H](C)c5ccc(-c6scnc6C)cc5)C(C)C)on4)CC3)nc3c(F)c(-c4cc(O)cc5ccccc45)c(Cl)cc23)C[C@@H]1CC#N [Compound 131, (2S,4R)-1-[(2R)-2-[3-({1-[2-({6-chloro-4-[(3S)-3-(cyanomethyl)-4-(prop-2-enoyl)piperazin-1-yl]-8-fluoro-7-(3-hydroxynaphthalen-1-yl)quinazolin-2-yl}oxy)ethyl]-4-methylpiperidin-4-yl}methoxy)-1,2-oxazol-5-yl]-3-methylbutanoyl]-4-hydroxy-N-[(1S)-1-[4-(4-methyl-1,3-thiazol-5-yl)phenyl]ethyl]pyrrolidine-2-carboxamide] | > 70 | 0.1 to 1 | > 70 | < 0.1 |  | 

More lines, main results first:

Row | Dmax (HiBit-KRAS^G12C [1]; [3]) [%] | DC50 (HiBit-KRAS^G12C [1]; [4]) [µM] | Dmax (HiBit-KRAS^G12C [2]; [5]) [%] | DC50 (HiBit-KRAS^G12C [2]; SW1573 HiBit-KRas^G12C) [µM] | SMILES | Dmax (HiBit-KRAS^G12C [1]; MIA PaCa-2, read-out: KRas^G12C-HiBiT (MiaPaCa; 0.5% DMSO) DMax, MiaPaCa-2 HiBit-KRas^G12C cells) [%] | Dmax (HiBit-KRAS^G12C [2]; SW1573, read-out: KRas^G12C-HiBiT (SW1573; 0.5% DMSO) Dmax**, SW1573 HiBit-KRas^G12C) [%]
6 | > 70 | 0.1 to 1 | > 70 | 0.1 to 1 | C=CC(=O)N1CCN(c2nc(OCCN3CCC(COCC(=O)N[C@H](C(=O)N4C[C@H](O)C[C@H]4C(=O)N[C@@H](C)c4ccc(-c5scnc5C)cc4)C(C)(C)C)CC3)nc3c(F)c(-c4nc(N)cc(C)c4C(F)(F)F)c(Cl)cc23)C[C@@H]1CC#N [Compound 115, (2S,4R)-1-[(2S)-2-[2-({1-[2-({7-[6-amino-4-methyl-3-(trifluoromethyl)pyridin-2-yl]-6-chloro-4-[(3S)-3-(cyanomethyl)-4-(prop-2-enoyl)piperazin-1-yl]-8-fluoroquinazolin-2-yl}oxy)ethyl]piperidin-4-yl}methoxy)acetamido]-3,3-dimethylbutanoyl]-4-hydroxy-N-[(1S)-1-[4-(4-methyl-1,3-thiazol-5-yl)phenyl]ethyl]pyrrolidine-2-carboxamide] |  | 
7 | > 70 | 0.1 to 1 | > 70 | 0.1 to 1 | C=CC(=O)N1CCN(c2nc(OCCN3CCC(COCC(=O)N[C@H](C(=O)N4C[C@H](O)C[C@H]4C(=O)N[C@@H](C)c4ccc(-c5scnc5C)cc4)C(C)(C)C)CC3)nc3c(F)c(-c4cc(O)cc5ccccc45)c(Cl)cc23)[C@@H](C)C1 [Compound 119, (2S,4R)-1-[(2S)-2-(2-{[1-(2-{[6-chloro-8-fluoro-7-(3-hydroxynaphthalen-1-yl)-4-[(2S)-2-methyl-4-(prop-2-enoyl)piperazin-1-yl]quinazolin-2-yl]oxy}ethyl)piperidin-4-yl]methoxy}acetamido)-3,3-dimethylbutanoyl]-4-hydroxy-N-[(1S)-1-[4-(4-methyl-1,3-thiazol-5-yl)phenyl]ethyl]pyrrolidine-2-carboxamide] |  | 
8 | 35 to 70 | 0.1 to 1 | 35 to 70 | 0.1 to 1 | C=CC(=O)N1CCN(c2nc(O[C@H]3CCC[C@@H]3N3CCC(COCC(=O)N[C@H](C(=O)N4C[C@H](O)C[C@H]4C(=O)N[C@@H](C)c4ccc(-c5scnc5C)cc4)C(C)(C)C)CC3)nc3c(F)c(-c4cc(O)cc5ccccc45)c(Cl)cc23)C[C@@H]1CC#N [Compound 127, (2S,4R)-1-[(2S)-2-[2-({1-[(1S,2S)-2-({6-chloro-4-[(3S)-3-(cyanomethyl)-4-(prop-2-enoyl)piperazin-1-yl]-8-fluoro-7-(3-hydroxynaphthalen-1-yl)quinazolin-2-yl}oxy)cyclopentyl]piperidin-4-yl}methoxy)acetamido]-3,3-dimethylbutanoyl]-4-hydroxy-N-[(1S)-1-[4-(4-methyl-1,3-thiazol-5-yl)phenyl]ethyl]pyrrolidine-2-carboxamide] |  | 
